Test results: US10301664B2, “Repurposing non-antimicrobial drugs and clinical molecules to treat bacterial infections” (Purdue Research Foundation, priority 2015, dated 2019)
Values after ≈ are worked out from the molar mass of the structure shown. Where two headings read alike, the source gives them in different places. Numbered stars: 1 amine (or outer) side, 2 acyl side, 3 side chain; on linkers, the order of the positions; unused ones are H or OH. Bridge positions count the residues as written; N and C are the ends. Square brackets hold non-standard residues; d marks the D form. Peptide text beside a SMILES is read from it. I, II: the chains in the order shown. Actinocin(9to1) = Cc1c2oc3c(C)ccc(C(=O)[*:1])c3nc-2c(C(=O)[*:2])c(N)c1=O; NMeV = CN[C@H](C(=O)O)C(C)C; Sar = CNCC(=O)O

How the values were obtained:
[1] = tested on: vancomycin resistant E. faecium ATCC 700221 (VRE); test: Library hits: MIC/MBC against VRE; format: cell-based
MRSA USA300 = test: Library hits: MIC/MBC against MRSA; format: cell-based, Staphylococcus aureus
[2] = Staphylococcus aureus, read-out: MBC
[3] = Staphylococcus aureus, read-out: MIC

SMILES	MIC ([1]; VRE, read-out: MIC) [µM]	MIC (MRSA USA300; [3]) [µM]	MBC (MRSA USA300; [2]) [µM]	other results
O=c1[nH]cc(F)c(=O)[nH]1 [5-Fluorouracil]	> 16	4 (≈ 0.52 µg/mL)	16 (≈ 2.08 µg/mL)	–
CC(=O)[C@]1(O)Cc2c(O)c3c(c(O)c2[C@@H](O[C@H]2C[C@H](N)[C@H](O)[C@H](C)O2)C1)C(=O)c1ccccc1C3=O [Idarubicin]	4 (≈ 1.99 µg/mL)	4 (≈ 1.99 µg/mL)	4 (≈ 1.99 µg/mL)	–
Clc1ccccc1C(c1ccccc1)(c1ccccc1)n1ccnc1 [Clotrimazole]	> 16	4 (≈ 1.38 µg/mL)	64 (≈ 22.1 µg/mL)	–
Clc1ccc(CO/N=C(\Cn2ccnc2)c2ccc(Cl)cc2Cl)c(Cl)c1 [Oxiconazole]	–	–	32 (≈ 13.7 µg/mL)	–
O=c1[nH]c(=O)n(C2CCCO2)cc1F (centres unmarked) [Ftorafur]	16 (≈ 3.2 µg/mL)	> 16	–	–
Cc1c2oc3c(C)ccc(C(=O)N[C@@H]4C(=O)N[C@H](C(C)C)C(=O)N5CCC[C@H]5C(=O)N(C)CC(=O)N(C)[C@@H](C(C)C)C(=O)O[C@@H]4C)c3nc-2c(C(=O)N[C@@H]2C(=O)N[C@H](C(C)C)C(=O)N3CCC[C@H]3C(=O)N(C)CC(=O)N(C)[C@@H](C(C)C)C(=O)O[C@@H]2C)c(N)c1=O [Dactinomycin] (I: T[dV]P[Sar][NMeV] / II: T[dV]P[Sar][NMeV]; ester I:1-I:C, II:1-II:C; linker I:N-II:N via Actinocin(9to1))	–	–	–	MIC [1]: 0.5 µM (≈ 0.628 µg/mL); MIC (MRSA USA300; Staphylococcus aureus): > 16 µM
COc1cccc2c1C(=O)c1c(O)c3c(c(O)c1C2=O)C[C@@](O)(C(C)=O)C[C@@H]3O[C@H]1C[C@H](N)[C@H](O)[C@H](C)O1 [Daunorubicin]	–	–	–	MIC [1]: 8 µM (≈ 4.22 µg/mL); MBC (MRSA USA300; Staphylococcus aureus): 16 µM (≈ 8.44 µg/mL); MIC (MRSA USA300; Staphylococcus aureus): 16 µM (≈ 8.44 µg/mL)
CC(C)c1ccc2c(c1)c(SC(C)(C)C)c(CC(C)(C)C(=O)O)n2Cc1ccc(Cl)cc1 [MK-886]	8 (≈ 3.78 µg/mL)	–	–	MBC (MRSA USA300; MRSA, read-out: MBC): 16 µM (≈ 7.55 µg/mL); MIC (MRSA USA300; MRSA, read-out: MIC): 8 µM (≈ 3.78 µg/mL)
Cc1nc2ccc(CN(C)c3ccc(C(=O)N[C@@H](CCC(=O)O)C(=O)O)s3)cc2c(=O)[nH]1 [Raltitrexed]	2 (≈ 0.917 µg/mL)	> 16	–	–

Further lines, with some results ahead:

MIC ([1]; VRE, read-out: MIC) [µM]	MIC (MRSA USA300; [3]) [µM]	SMILES	MBC (MRSA USA300; [2]) [µM]	other results
> 16	16 (≈ 3.38 µg/mL)	CC(C)NCC(O)c1ccc(O)c(O)c1 (centres unmarked) [Isoproterenol]	64 (≈ 13.5 µg/mL)	–
8 (≈ 4.35 µg/mL)	16 (≈ 8.7 µg/mL)	COc1cccc2c1C(=O)c1c(O)c3c(c(O)c1C2=O)C[C@@](O)(C(=O)CO)C[C@@H]3O[C@H]1C[C@H](N)[C@@H](O)[C@H](C)O1 [Epirubicin]	64 (≈ 34.8 µg/mL)	–
1 (≈ 0.222 µg/mL)	> 16	CC(=O)Nc1nnc(S(N)(=O)=O)s1 [Acetazolamide]	–	–
16 (≈ 6.5 µg/mL)	16 (≈ 6.5 µg/mL)	CN(C)CCOc1ccc(/C(=C(/CCCl)c2ccccc2)c2ccccc2)cc1 [Toremifene]	16 (≈ 6.5 µg/mL)	–
> 16	16 (≈ 5.94 µg/mL)	CC/C(=C(\c1ccccc1)c1ccc(OCCN(C)C)cc1)c1ccccc1 [Tamoxifen]	16 (≈ 5.94 µg/mL)	–
> 16	8 (≈ 2.88 µg/mL)	CSc1nc2cc(Cl)c(Oc3cccc(Cl)c3Cl)cc2[nH]1 [Triclabendazole]	32 (≈ 11.5 µg/mL)	–
> 16	8 (≈ 2.48 µg/mL)	c1ccc(-c2ccc(C(c3ccccc3)n3ccnc3)cc2)cc1 (centres unmarked) [Bifonazole]	> 64	–
> 16	4 (≈ 1.66 µg/mL)	Clc1ccc(COC(Cn2ccnc2)c2ccc(Cl)cc2Cl)c(Cl)c1 (centres unmarked) [Miconazole]	8 (≈ 3.33 µg/mL)	–
4 (≈ 1.32 µg/mL)	> 16	NS(=O)(=O)c1cc(C(=O)O)c(NCc2ccco2)cc1Cl [Furosemide]	–	–
> 16	4 (≈ 1.53 µg/mL)	Clc1ccc(COC(Cn2ccnc2)c2ccc(Cl)cc2Cl)cc1 (centres unmarked) [Econazole]	32 (≈ 12.2 µg/mL)	–
> 16	2 (≈ 0.515 µg/mL)	CCCCCCNC(=O)n1cc(F)c(=O)[nH]c1=O [Carmofur]	4 (≈ 1.03 µg/mL)	–
16 (≈ 6.5 µg/mL)	16 (≈ 6.5 µg/mL)	CCN(CC)CCOc1ccc(C(=C(Cl)c2ccccc2)c2ccccc2)cc1 [Clomid]	32 (≈ 13 µg/mL)	–
